Among the data in publication PMC3686551 (Tuberculosis (Edinburgh, Scotland), 2013) are IC50 values, retold here.

This experiment addresses Mtb FtsZ (Mycobacterium tuberculosis, UniProt P9WN95). As to the kind of experiment: FtsZ polymerization inhibition. The format is biochemical.

Mtb FtsZ, sequence (P9WN95 whole entry): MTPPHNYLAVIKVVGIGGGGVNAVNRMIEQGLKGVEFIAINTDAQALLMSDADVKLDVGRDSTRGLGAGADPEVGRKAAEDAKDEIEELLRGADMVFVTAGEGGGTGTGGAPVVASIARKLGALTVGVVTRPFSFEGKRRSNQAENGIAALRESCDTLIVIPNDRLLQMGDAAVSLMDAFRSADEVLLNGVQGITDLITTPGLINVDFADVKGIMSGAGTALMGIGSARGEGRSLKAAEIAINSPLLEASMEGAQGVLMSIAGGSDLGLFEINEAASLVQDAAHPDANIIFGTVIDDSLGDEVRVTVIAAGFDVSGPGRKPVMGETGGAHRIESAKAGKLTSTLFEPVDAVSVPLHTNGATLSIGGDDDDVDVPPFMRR

As for `CCCOc1ccc(N(C)c2cc(C)nc3ccc(Cl)cc23)cc1` [compound 3], the IC50 was greater than 100 µM.

The IC50 is the concentration at which inhibition is half-maximal.
